Values after ≈ are worked out from the molar mass of the structure shown.

Test in all cases: ≥ marks a high value that may be exact or a test limit, other limits are often not marked, values filed in µg/mL are converted to µM
In experiment [1] the test system is Bacillus cereus.
The subject of experiment [2] is Candida albicans ATCC 2002.
The test system of experiment [3] is Escherichia coli ATCC 25922.
The subject of experiment [4] is Pseudomonas aeruginosa.
For experiment [5], the system named is Shigella dysenteriae.
The test system of experiment [6] is Staphylococcus aureus ATCC 2592.
For experiment [7], the system named is Escherichia coli K12 MG1655.
Experiment [8] deals with Bacillus subtilis 168.
Experiment [9] has as its system Candida albicans F7-39/IDE99.
Experiment [10] has as its system Escherichia coli B.
Experiment [11] relates to Staphylococcus aureus.
In experiment [12] the test system is Escherichia coli ATCC 25726.
In experiment [13] the test system is Staphylococcus aureus ATCC 25923.
Experiment [14] relates to Streptococcus mutans.
The test system of experiment [15] is Enterococcus faecalis ATCC 29212.
For experiment [16], the system named is Leuconostoc lactis.
The subject of experiment [17] is Candida albicans ATCC 90028.

Regarding `CC(C)C[C@H](NC(=O)[C@H](C)NC(=O)[C@@H](N)CC(N)=O)C(=O)N[C@@H](CO)C(=O)N[C@@H](CO)C(=O)N1CCC[C@H]1C(=O)N[C@@H](CCCN=C(N)N)C(=O)N[C@@H](CC(N)=O)C(=O)N[C@@H](CCCCN)C(=O)N[C@H]1CSSC[C@@H](C(=O)N[C@@H](Cc2ccccc2)C(=O)NCC(=O)O)NC(=O)[C@H](CO)NC(=O)[C@H](CO)NC(=O)[C@H](C)NC(=O)[C@H](CCCN=C(N)N)NC(=O)[C@H](CC(=O)O)NC1=O` [NALSSPRNKCDRASSCFG], the MIC in [1] was 6.53 µM (≈ 12.5 µg/mL); in [2], 3.27 µM (≈ 6.24 µg/mL); in experiment [3], 26.1 µM (≈ 49.9 µg/mL); in [4] it was 3.27 µM (≈ 6.25 µg/mL); in [5] it was 1.62 µM (≈ 3.1 µg/mL); in experiment [6] it was 3.27 µM (≈ 6.24 µg/mL).
With `CC[C@H](C)[C@H](NC(=O)[C@H](C)N)C(=O)N[C@@H](C)C(=O)N[C@@H](CCCN=C(N)N)C(=O)N[C@H](C(=O)N[C@@H](CCCN=C(N)N)C(=O)N[C@@H](CCCN=C(N)N)C(=O)N[C@@H](CCCN=C(N)N)C(=O)N[C@@H](CC(C)C)C(=O)N[C@@H](CC(C)C)C(=O)N[C@@H](CC(C)C)C(=O)N[C@@H](Cc1ccc(O)cc1)C(=O)N[C@@H](CC(C)C)C(=O)N[C@@H](CC(C)C)C(=O)N[C@@H](C)C(=O)O)[C@@H](C)O` [AIARTRRRLLLYLLA], the MIC in experiment [7] was no less than 71.1 µM.
Take `CSCC[C@@H]1NC(=O)[C@H](C(C)C)NC(=O)[C@H](C)NC(=O)[C@H](CCCN=C(N)N)NC(=O)[C@H](Cc2ccccc2)NC(=O)CNC(=O)CNC(=O)[C@H](CCCCN)NC(=O)[C@@H](NC(=O)[C@H](CCCN=C(N)N)NC(=O)[C@@H]2CCCN2C(=O)[C@H](CCSC)NC(=O)[C@H](CO)NC(=O)[C@H](Cc2ccc(O)cc2)NC(=O)[C@H](C)NC(=O)[C@@H](N)CCCCN)CSSC[C@@H](C(=O)N[C@@H](Cc2c[nH]c3ccccc23)C(=O)N[C@@H](CC(C)C)C(N)=O)NC1=O` [KAYSMPRCKGGFRAVMCWL]: the minimal inhibitory concentration (MIC) amounted to 22.7 µM (≈ 49.9 µg/mL) in [1]; 22.7 µM (≈ 49.9 µg/mL) in experiment [2]; 5.67 µM (≈ 12.5 µg/mL) in experiment [3]; 22.7 µM (≈ 49.9 µg/mL) in [4]; 5.67 µM (≈ 12.5 µg/mL) in experiment [5]; 11.3 µM (≈ 25 µg/mL) in [6].
Take `CC[C@H](C)[C@H](NC(=O)[C@H](CC(C)C)NC(=O)[C@H](Cc1cnc[nH]1)NC(=O)CNC(=O)[C@H](CC(C)C)NC(=O)[C@@H](NC(=O)[C@H](CCCCN)NC(=O)[C@H](CO)NC(=O)[C@H](Cc1c[nH]c2ccccc12)NC(=O)[C@H](CCCCN)NC(=O)CN)[C@@H](C)CC)C(=O)N[C@@H](CCCN=C(N)N)C(N)=O` [GKWSKILGHLIR]: the MIC in experiment [8] is 2 µM (≈ 2.81 µg/mL); in experiment [9], 7.4 µM (≈ 10.4 µg/mL); in experiment [10] it was 3.7 µM (≈ 5.2 µg/mL); in [4], 71.7 µM (≈ 101 µg/mL); in [11], 23.3 µM (≈ 32.8 µg/mL).
In the case of `CC[C@H](C)[C@H](N)C(=O)N[C@H](C(=O)N[C@H](C(=O)N1CCC[C@H]1C(=O)N1CCC[C@H]1C(=O)N[C@H](C(=O)N[C@H](C(=O)N[C@@H](CCCCN)C(=O)N[C@@H](CC(=O)O)C(=O)N[C@H](C(=O)N[C@@H](CC(C)C)C(=O)N[C@@H](CCCCN)C(=O)N[C@@H](CCCCN)C(=O)N[C@@H](Cc1ccccc1)C(=O)N[C@H](C(=O)N[C@@H](CCCCN)C(=O)NCC(=O)N[C@@H](C)C(=O)N[C@H](C(=O)N[C@@H](CO)C(=O)N[C@@H](CO)C(=O)N[C@H](C(=O)N[C@@H](CCSC)C(N)=O)C(C)C)[C@@H](C)CC)[C@@H](C)CC)[C@@H](C)O)C(C)C)[C@@H](C)CC)[C@@H](C)CC)[C@@H](C)O` [ITIPPIVKDTLKKFIKGAISSVM], the MIC in experiment [12] is no less than 40 µM; in experiment [13] it was 20 µM (≈ 50 µg/mL).
For `CSCC[C@H](NC(=O)CNC(=O)[C@H](Cc1ccccc1)NC(=O)[C@@H](N)CC(C)C)C(=O)N[C@@H](C)C(=O)N[C@@H](CC(C)C)C(=O)N[C@@H](CCCCN)C(=O)N[C@@H](CC(C)C)C(=O)N[C@@H](CC(C)C)C(=O)N[C@@H](CCCCN)C(=O)N[C@@H](CCCCN)C(=O)N[C@H](C(=O)N[C@@H](CC(C)C)C(N)=O)C(C)C` [LFGMALKLLKKVL], the MIC was 1.5 µM (≈ 2.21 µg/mL) in experiment [8]; 10 µM (≈ 14.7 µg/mL) in [9]; 3.8 µM (≈ 5.6 µg/mL) in experiment [10]; 50 µM (≈ 73.6 µg/mL) in [4]; 2.3 µM (≈ 3.39 µg/mL) in experiment [11].
On to `NC(=O)[C@H](Cc1ccccc1)NC(=O)[C@H](Cc1c[nH]c2ccccc12)NC(=O)[C@H](Cc1c[nH]c2ccccc12)NC(=O)[C@H](Cc1c[nH]c2ccccc12)NC(=O)[C@H](CCCN=C(N)N)NC(=O)[C@H](CCCN=C(N)N)NC(=O)[C@H](CCCN=C(N)N)NC(=O)[C@H](Cc1ccccc1)NC(=O)[C@H](Cc1c[nH]c2ccccc12)NC(=O)[C@H](Cc1c[nH]c2ccccc12)NC(=O)[C@H](Cc1c[nH]c2ccccc12)NC(=O)[C@H](CCCN=C(N)N)NC(=O)[C@H](CCCN=C(N)N)NC(=O)[C@@H](N)CCCN=C(N)N` [RRRWWWFRRRWWWF], for which, in [14], the MIC is 6.76 µM (≈ 16 µg/mL).
Take `CC[C@H](C)[C@H](NC(=O)CNC(=O)[C@@H](NC(=O)[C@@H](NC(=O)[C@H](Cc1cnc[nH]1)NC(=O)[C@H](CCCCN)NC(=O)[C@H](C)NC(=O)[C@H](CC(C)C)NC(=O)[C@H](CC(=O)O)NC(=O)[C@H](CC(C)C)NC(=O)[C@H](CC(C)C)NC(=O)CN)C(C)C)[C@@H](C)CC)C(=O)N[C@@H](C)C(=O)N[C@@H](CO)C(=O)N[C@@H](CCCCN)C(=O)N[C@@H](CC(C)C)C(N)=O` [GLLDLAKHVIGIASKL]: the MIC was 100 µM (≈ 165 µg/mL) in experiment [15] and no less than 100 µM in experiment [16].
Consider `NC(N)=NCCC[C@H](NC(=O)[C@H](Cc1c[nH]c2ccccc12)NC(=O)[C@H](CCCN=C(N)N)NC(=O)[C@H](Cc1c[nH]c2ccccc12)NC(=O)[C@H](CCCN=C(N)N)NC(=O)[C@H](Cc1c[nH]c2ccccc12)NC(=O)[C@@H](N)CCCN=C(N)N)C(=O)O` [RWRWRWR], for which the MIC in [14] turned out to be 26.6 µM (≈ 32 µg/mL).
In the case of `CC[C@H](C)[C@H](NC(=O)CN)C(=O)NCC(=O)N[C@@H](CCCCN)C(=O)N[C@@H](Cc1ccccc1)C(=O)N[C@@H](CC(C)C)C(=O)N[C@@H](Cc1cnc[nH]1)C(=O)N[C@@H](CO)C(=O)N[C@@H](C)C(=O)NCC(=O)N[C@@H](CCCCN)C(=O)N[C@@H](Cc1ccccc1)C(=O)NCC(=O)N[C@@H](CCCCN)C(=O)N[C@@H](C)C(=O)N[C@@H](Cc1ccccc1)C(=O)N[C@H](C(=O)NCC(=O)N[C@@H](CCC(=O)O)C(=O)N[C@H](C(=O)N[C@@H](CCSC)C(=O)N[C@@H](CCCCN)C(=O)N[C@@H](CO)C(=O)O)[C@@H](C)CC)[C@@H](C)CC` [GIGKFLHSAGKFGKAFIGEIMKS], the MIC in experiment [17] is 25 µM (≈ 60.6 µg/mL); in experiment [12], 12.5 µM (≈ 30.3 µg/mL); in [13] it was 50 µM (≈ 121 µg/mL).
The compound `C[C@H](N)C(=O)N[C@@H](CCC(N)=O)C(=O)N[C@@H](C)C(=O)N[C@@H](C)C(=O)N[C@@H](Cc1cnc[nH]1)C(=O)N[C@@H](CCC(N)=O)C(=O)N[C@@H](C)C(=O)N[C@@H](C)C(=O)N[C@@H](Cc1cnc[nH]1)C(=O)N[C@@H](C)C(=O)N[C@@H](C)C(=O)N[C@@H](Cc1cnc[nH]1)C(=O)N[C@@H](CCC(N)=O)C(=O)N[C@@H](Cc1ccccc1)C(N)=O` [AQAAHQAAHAAHQF] returned an MIC in experiment [14] of no less than 85.7 µM.
Regarding `CC[C@H](C)[C@H](N)C(=O)N[C@H](C(=O)N[C@H](C(=O)N1CCC[C@H]1C(=O)N1CCC[C@H]1C(=O)N[C@H](C(=O)N[C@H](C(=O)N[C@@H](CCCCN)C(=O)N[C@@H](CC(N)=O)C(=O)N[C@H](C(=O)N[C@@H](CC(C)C)C(=O)N[C@@H](CCCCN)C(=O)N[C@@H](CCCCN)C(=O)N[C@@H](Cc1ccccc1)C(=O)N[C@H](C(=O)N[C@@H](CCCCN)C(=O)NCC(=O)N[C@@H](C)C(=O)N[C@H](C(=O)N[C@@H](CO)C(=O)N[C@@H](C)C(=O)N[C@@H](CC(C)C)C(=O)N[C@@H](CCSC)C(=O)N[C@@H](CO)C(=O)O)C(C)C)[C@@H](C)CC)[C@@H](C)O)C(C)C)[C@@H](C)CC)[C@@H](C)CC)[C@@H](C)O` [ITIPPIVKNTLKKFIKGAVSALMS], the MIC in [12] was no less than 40 µM; in experiment [13], 10 µM (≈ 25.7 µg/mL).
In experiment [14], `NC(=O)[C@H](Cc1ccccc1)NC(=O)[C@H](Cc1c[nH]c2ccccc12)NC(=O)[C@H](Cc1c[nH]c2ccccc12)NC(=O)[C@H](Cc1c[nH]c2ccccc12)NC(=O)[C@H](CCCN=C(N)N)NC(=O)[C@H](CCCN=C(N)N)NC(=O)[C@H](CCCN=C(N)N)NC(=O)[C@@H]1CCCN1C(=O)[C@H](CO)NC(=O)CNC(=O)[C@H](CO)NC(=O)[C@@H]1CCCN1C(=O)[C@H](Cc1ccccc1)NC(=O)[C@H](Cc1c[nH]c2ccccc12)NC(=O)[C@H](Cc1c[nH]c2ccccc12)NC(=O)[C@H](Cc1c[nH]c2ccccc12)NC(=O)[C@H](CCCN=C(N)N)NC(=O)[C@H](CCCN=C(N)N)NC(=O)[C@@H](N)CCCN=C(N)N` [RRRWWWFPSGSPRRRWWWF] showed an MIC of 11.5 µM (≈ 32 µg/mL).

For orientation: MIC means the smallest concentration in the dilution series that meets the test's criterion for growth inhibition.

Values taken from DBAASP.
